Assay results taken from publication PMC5442763, “Selective Inhibition of ADAM17 Efficiently Mediates Glycoprotein Ibα Retention During Ex Vivo Generation of Human Induced Pluripotent Stem Cell‐Derived Platelets” (Stem Cells Translational Medicine, 2016).

How the values were obtained:
[1] = target: T1, human ADAM10 (Homo sapiens, UniProt O14672); test: MMP and ADAM activity assay (fluorescence-based): ADAM10; format: biochemical; conditions: cell-free fluorescence assay
T1 construct: purchased R&D Systems
T1 sequence (O14672 214-748): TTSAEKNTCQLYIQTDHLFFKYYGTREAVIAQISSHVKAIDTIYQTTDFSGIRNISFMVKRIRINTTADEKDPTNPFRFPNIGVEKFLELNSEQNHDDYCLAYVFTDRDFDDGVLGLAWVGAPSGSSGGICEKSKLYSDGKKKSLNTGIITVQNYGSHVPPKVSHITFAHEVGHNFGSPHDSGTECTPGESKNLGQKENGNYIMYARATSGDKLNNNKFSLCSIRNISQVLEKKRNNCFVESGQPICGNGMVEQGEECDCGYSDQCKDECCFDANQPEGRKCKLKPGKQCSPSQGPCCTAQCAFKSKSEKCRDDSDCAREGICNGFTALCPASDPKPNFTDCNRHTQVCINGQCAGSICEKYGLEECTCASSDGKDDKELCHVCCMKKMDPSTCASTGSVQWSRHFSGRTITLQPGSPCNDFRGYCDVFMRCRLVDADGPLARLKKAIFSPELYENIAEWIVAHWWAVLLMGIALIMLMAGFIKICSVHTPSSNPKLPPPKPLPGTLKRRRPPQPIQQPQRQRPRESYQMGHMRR
Method: (§1) KP‐457 and GM‐6001 were tested for their ability to inhibit MMP‐ and ADAM‐catalyzed cleavage of substrates in a fluorescence‐based assay. Human ADAM17, ADAM10, and MMP17 were from R&D Systems (Minneapolis, MN, http://www.rndsystems.com), and human MMP1, MMP2, MMP3, MMP8, MMP9, MMP13, and MMP14 were from EMD Millipore. MMP1, MMP2, MMP8, MMP9, MMP13, and MMP17 were activated using p‐aminophenylmercuric acetate (Sigma‐Aldrich) before testing. Fluorogenic substrates for measuring activity of ADAM10 and ADAM17 [Nma‐[…](Dnp)r‐NH2, based on the cleavage site of TNF‐α]; MMP1, MMP9, MMP13, and MMP14 [Dnp‐P‐Cha‐GC(Me)HAK(N‐Me‐Abz)‐NH2]; MMP3 [MOCAc‐RPKPVE‐Nva‐WRK(Dnp)‐NH2]; and MMP2, MMP8, and MMP17 [MOCAc‐PLGL‐A2pr(Dnp)‐AR‐NH2] were all provided by Peptide Institute (Osaka, Japan, https://www.peptide.co.jp/en) and used as substrates. In addition, inhibitory activities were measured using LC/MS/MS with a GPIbα‐based substrate peptide ([…]), a C terminal‐based standard peptide ([…]), and an internal standard peptide ([…]). These peptides were synthetized by Scrum (Tokyo, Japan, http://www.scrum‐net.co.jp/english/top_en.htm).

[2] = target: T2, human MMP1 (Homo sapiens, UniProt P03956); test: MMP and ADAM activity assay (fluorescence-based): MMP1; format: biochemical; conditions: cell-free fluorescence assay
T2 construct: purchased EMD Millipore
T2 sequence (P03956 100-469): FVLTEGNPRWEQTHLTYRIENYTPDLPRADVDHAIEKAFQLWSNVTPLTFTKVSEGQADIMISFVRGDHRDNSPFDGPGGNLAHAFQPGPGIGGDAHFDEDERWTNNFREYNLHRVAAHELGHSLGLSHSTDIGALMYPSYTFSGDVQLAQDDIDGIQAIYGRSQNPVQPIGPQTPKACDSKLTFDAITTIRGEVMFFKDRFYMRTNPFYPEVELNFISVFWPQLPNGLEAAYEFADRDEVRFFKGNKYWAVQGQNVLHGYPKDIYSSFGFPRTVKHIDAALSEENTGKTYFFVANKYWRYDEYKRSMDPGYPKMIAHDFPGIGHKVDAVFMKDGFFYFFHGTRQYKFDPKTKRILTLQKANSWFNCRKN
Excerpt: as §1, with “Human” for “KP‐457 and GM‐6001 were tested for their ability to inhibit MMP‐ and ADAM‐catalyzed cleavage of substrates in a fluorescence‐based assay. Human”

[3] = target: T3, human MMP3 (Homo sapiens, UniProt P08254); test: MMP and ADAM activity assay (fluorescence-based): MMP3; format: biochemical; conditions: cell-free fluorescence assay
T3 construct: purchased EMD Millipore
T3 sequence (P08254 100-477): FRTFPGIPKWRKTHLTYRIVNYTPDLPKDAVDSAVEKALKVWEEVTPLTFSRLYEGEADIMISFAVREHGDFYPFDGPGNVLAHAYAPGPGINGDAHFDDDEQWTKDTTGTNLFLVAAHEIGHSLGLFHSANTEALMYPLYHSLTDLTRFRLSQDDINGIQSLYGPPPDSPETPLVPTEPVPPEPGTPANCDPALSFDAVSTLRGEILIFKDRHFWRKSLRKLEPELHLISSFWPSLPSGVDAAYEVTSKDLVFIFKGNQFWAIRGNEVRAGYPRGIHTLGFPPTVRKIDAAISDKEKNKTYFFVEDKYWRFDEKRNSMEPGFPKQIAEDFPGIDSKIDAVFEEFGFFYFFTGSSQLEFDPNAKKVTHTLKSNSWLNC
Method: as §1

[4] = target: T4, human MMP14 (Homo sapiens, UniProt P50281); test: MMP and ADAM activity assay (fluorescence-based): MMP14; format: biochemical; conditions: cell-free fluorescence assay
T4 construct: purchased EMD Millipore
Method: as §1

[5] = target: T5, human MMP17 (Homo sapiens, UniProt Q9ULZ9); test: MMP and ADAM activity assay (fluorescence-based): MMP17; format: biochemical; conditions: cell-free fluorescence assay
T5 construct: purchased R&D Systems
T5 sequence (Q9ULZ9 126-565 limits assumed): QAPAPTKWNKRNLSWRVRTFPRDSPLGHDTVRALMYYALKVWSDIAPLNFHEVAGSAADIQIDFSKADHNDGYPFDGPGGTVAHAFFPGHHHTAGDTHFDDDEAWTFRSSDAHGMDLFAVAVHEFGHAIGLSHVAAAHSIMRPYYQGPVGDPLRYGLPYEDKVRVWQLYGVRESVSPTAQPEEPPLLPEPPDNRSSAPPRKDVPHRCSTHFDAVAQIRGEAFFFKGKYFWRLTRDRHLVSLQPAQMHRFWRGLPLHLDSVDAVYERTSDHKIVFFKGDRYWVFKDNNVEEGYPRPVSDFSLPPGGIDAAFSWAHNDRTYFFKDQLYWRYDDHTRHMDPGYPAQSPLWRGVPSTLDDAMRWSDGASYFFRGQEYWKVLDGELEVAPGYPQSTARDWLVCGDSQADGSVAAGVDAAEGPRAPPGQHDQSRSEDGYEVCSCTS
Method: as §1

[6] = target: T6, Human ADAM17 (Homo sapiens, UniProt P78536); test: Cleavage of GPIbα-based substrate peptide by ADAM17 (LC/MS/MS); format: biochemical; conditions: GPIbα-based substrate peptide, LC/MS/MS; read-out: IC50, inhibition of C-terminal cleavage of the GPIbα sequence by ADAM17
T6 construct: purchased R&D Systems
T6 sequence (P78536 215-824): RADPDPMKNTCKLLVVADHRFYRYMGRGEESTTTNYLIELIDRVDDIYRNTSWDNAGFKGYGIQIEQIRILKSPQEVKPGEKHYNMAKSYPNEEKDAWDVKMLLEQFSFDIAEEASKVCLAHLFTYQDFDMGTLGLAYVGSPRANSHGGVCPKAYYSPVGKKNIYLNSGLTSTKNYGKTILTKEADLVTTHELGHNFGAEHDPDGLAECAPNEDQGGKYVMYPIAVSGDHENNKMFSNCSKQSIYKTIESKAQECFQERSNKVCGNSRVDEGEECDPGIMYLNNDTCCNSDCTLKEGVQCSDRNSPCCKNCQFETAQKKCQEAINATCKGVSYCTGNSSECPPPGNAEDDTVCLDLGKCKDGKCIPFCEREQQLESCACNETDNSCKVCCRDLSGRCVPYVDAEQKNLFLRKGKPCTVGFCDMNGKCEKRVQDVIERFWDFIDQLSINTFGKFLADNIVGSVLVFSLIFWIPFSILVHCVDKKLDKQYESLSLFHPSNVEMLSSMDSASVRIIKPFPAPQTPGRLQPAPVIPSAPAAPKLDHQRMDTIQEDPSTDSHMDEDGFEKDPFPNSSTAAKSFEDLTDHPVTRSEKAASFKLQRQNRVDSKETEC
Excerpt: as §1, with “Human” for “KP‐457 and GM‐6001 were tested for their ability to inhibit MMP‐ and ADAM‐catalyzed cleavage of substrates in a fluorescence‐based assay. Human”
(1 picture or pasted object on this page, not shown here)

[7] = tested on: human washed platelets; test: CCCP-induced GPIbα shedding from washed platelets; format: cell-based; conditions: CCCP-treated human platelets
Method: (§2) Flow cytometric analysis was performed as previously described. Briefly, iPSC‐ and ESC‐derived MKs on days 22–24 and platelets in their supernatants were stained with combinations of antibodies for 30 minutes on ice (for MKs) or at room temperature (for platelets). Samples of MKs/platelets were then washed, diluted with staining medium (phosphate‐buffered saline containing 3% fetal bovine serum), and analyzed using flow cytometry (FACSAria; BD). Trucount tubes (BD) were used to quantify the MKs and platelets.
Washed platelets were prepared as described elsewhere.

[8] = tested on: human iPSC-derived MKs and platelets; test: Generation of MKs and platelets from human iPSC-derived HPCs at 37°C, flow cytometry; format: cell-based
Method: Directed differentiation to MKs and platelets from iPSCs and ESCs was performed as described previously. Briefly, 3 × 10^4 HPCs derived from iPS‐sacs on C3H10T1/2 feeder cells in the presence of 20 ng/ml vascular endothelial growth factor were transferred on day 14 of culture onto C3H10T1/2 feeder cells in differentiation medium supplemented with 50 ng/ml stem cell factor, 100 ng/ml thrombopoietin, 25 U/ml heparin sodium, and test compounds at 24°C or 37°C. The medium was refreshed every 3 days, and nonadherent cells were collected and analyzed on days 22–24.
as §2

[9] = KP-457 15 μmol/l, GM-6001 50 μmol/l, p38 MAP kinase inhibitor 10 μmol/l

In the case of `CC#CCOc1ccc(S(=O)(=O)CC(c2ccc(CNS(C)(=O)=O)cc2)N(O)C=O)cc1` (stereo not drawn) [KP-457, N‐(2‐{[4‐(but‐2‐yn‐1‐yloxy)phenyl]sulfonyl}‐1‐[4‐(methylsulfonamidomethyl)phenyl]ethyl)‐N‐hydroxyformamide], the IC50 [1] is reported as 748 nM, the IC50 [2] is reported as over 100 µM and the IC50 [3] is reported as 9.76 µM. It also gave an IC50 [4] of 2140 nM, an IC50 [5] of 7.1 µM and an IC50 [6] of 10.6 nM. For the same molecule, the “potency relative to GM-6001, inhibition of GPIbα shedding in the cellular assay” value [7] was 10 times, the “number of CD41a+ total iPSC platelets” value [8, 9] was “no significant effect” and the “retention of GPIbα expression on CD41a+ iPSC-derived platelets” value [8, 9] was “able to retain”. The “number of CD41a+ iPSC-derived MKs” value ([8]; KP-457 15 μmol/l, GM-6001 50 μmol/l, p38 MAP kinase inhibitor 10 μmol/l, MK differentiation and platelet production phases) was “no significant effect”, the “GPIbα+ population in human iPSC-derived CD41a+ platelets” value ([8]; KP-457 15 μmol/l, representative FACS plot, vehicle 48.3%) was 80.7% and the “GPIbα retention by iPSC-derived platelets, inhibitor only during platelet production phase” value ([8]; days 21–23 or 24, KP-457 15, BIRB796 10, U0126 10, BMS345541 10, Z-VAD 10, Ro31-8220 3 μmol/l) was “more effectively sustained”.
